The values below come from US9527885B2, “Hepatitis C virus inhibitors” (BRISTOL-MYERS SQUIBB COMPANY, priority 2011, dated 2016).

The subject of assay [1] is HCV genotype 1b (Con1) replicon in HUH-7 cells. The assay can be described thus: HCV replicon luciferase reporter assay, genotype 1b. The following applies: Hepatitis C virus, 72 h, HCV genotype 1b replicon luciferase, 3 days incubation, class symbols, read-out: LE_1b (EC50, range). The format is cell-based. The procedure, abridged: (§1)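 Twenty-point, threefold compound titrations (0.5% DMSO) were incubated 3 days at 37 °C with 3.0×10^3 HUH-7 cells/well in 4% FCS. The cells stably carried luciferase replicons: genotype 1b Con1 (S1179I) or 1a H77 (NS3 P1496L, NS5A S2204I). Renilla signal was read after 2 h with 7.5 μM EnduRen, and EC50 was taken from a four-parameter logistic fit. Cytotoxicity (CC50) was measured by Cell Titer-Blue, 8 h.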
In general terms: A replicon is a self-replicating genome or part of one, used to study replication in cells.

In assay [2] the test system is HCV genotype 1a (H77 strain) replicon in HUH-7 cells. The assay can be described thus: HCV replicon luciferase reporter assay, genotype 1a. The class given is cell-based. The note with it: Hepatitis C virus, Huh-7, 72 h, HCV genotype 1a replicon luciferase, 3 days incubation, class symbols, read-out: LE_1a (EC50, range). The procedure, abridged: as §1

One may read the EC50 as the concentration giving half of the maximal effect.

Some results are limits rather than exact numbers.

As to `[2H]C([2H])([2H])Oc1cnc(O[C@@H]2C[C@H]3C(=O)N[C@]4(C(=O)NS(=O)(=O)C5(C)CC5)C[C@H]4CCCC[C@H](C)C[C@@H](C)[C@H](NC(=O)OC(C)(C)C(F)(F)F)C(=O)N3C2)c2ccccc12` [Compound 5110, 1,1,1-trifluoro-2-methylpropan-2-yl ((2R,6S,7R,9S,13aR,14aR,16aS)-7,9-dimethyl-14a-(((1-methylcyclopropyl)sulfonyl)carbamoyl)-5,16-dioxo-2-((4-(trideuteromethoxy)isoquinolin-1-yl)oxy)octadecahydrocyclopropa[e]pyrrolo[1,2-a][1,4]diazacyclopentadecin-6-yl)carbamate], the EC50 in assay [1] was below 5.46 nM; in assay [2], 4.82 to 103 nM.
For `CCOc1cnc(O[C@@H]2C[C@H]3C(=O)N[C@]4(C(=O)NS(=O)(=O)C5(C)CC5)C[C@H]4/C=C\CC[C@H](C)C[C@@H](C)[C@H](NC(=O)OC(C)(C)C(C)(F)F)C(=O)N3C2)c2ccccc12` [Compound 5112, 3,3-difluoro-2-methylbutan-2-yl ((2R,6S,7R,9S,13aS,14aR,16aS,Z)-2-((4-ethoxyisoquinolin-1-yl)oxy)-7,9-dimethyl-14a-(((1-methylcyclopropyl)sulfonyl)carbamoyl)-5,16-dioxo-1,2,3,5,6,7,8,9,10,11,13a,14,14a,15,16,16a-hexadecahydrocyclopropa[e]pyrrolo[1,2-a][1,4]diazacyclopentadecin-6-yl)carbamate] the same measures were 4.82 to 103 nM and 4.82 to 103 nM.
`CCOc1cnc(O[C@@H]2C[C@H]3C(=O)N[C@]4(C(=O)NS(=O)(=O)C5(C)CC5)C[C@H]4/C=C\CC[C@@H](C)C[C@@H](C)[C@H](NC(=O)OC(C)(C)C(C)(F)F)C(=O)N3C2)c2ccccc12` [Compound 5113, 3,3-difluoro-2-methylbutan-2-yl ((2R,6S,7R,9R,13 aS,14aR,16aS,Z)-2-((4-ethoxyisoquinolin-1-yl)oxy)-7,9-dimethyl-14a-(((1-methylcyclopropyl)sulfonyl)carbamoyl)-5,16-dioxo-1,2,3,5,6,7,8,9,10,11,13a,14,14a,15,16,16a-hexadecahydrocyclopropa[e]pyrrolo[1,2-a][1,4]diazacyclopentadecin-6-yl)carbamate]: the EC50 in assay [1] and in assay [2] was below 5.46 nM throughout.
In the case of `C[C@@H]1CC/C=C\[C@@H]2C[C@@]2(C(=O)NS(=O)(=O)C2(C)CC2)NC(=O)[C@@H]2C[C@@H](Oc3nccc4c(N5CCOCC5)cccc34)CN2C(=O)[C@@H](NC(=O)OC(C)(C)C(F)(F)F)[C@H](C)C1` [Compound 5124, 1,1,1-trifluoro-2-methylpropan-2-yl ((2R,6S,7R,9R,13aS,14aR,16aS,Z)-7,9-dimethyl-14a-(((1-methylcyclopropyl)sulfonyl)carbamoyl)-2-((5-morpholinoisoquinolin-1-yl)oxy)-5,16-dioxo-1,2,3,5,6,7,8,9,10,11,13a,14,14a,15,16,16a-hexadecahydrocyclopropa[e]pyrrolo[1,2-a][1,4]diazacyclopentadecin-6-yl)carbamate], the EC50 in assay [1] and in assay [2] was below 5.46 nM throughout.
In the case of `C[C@@H]1CC/C=C\[C@@H]2C[C@@]2(C(=O)NS(=O)(=O)C2(C)CC2)NC(=O)[C@@H]2C[C@@H](Oc3nccc4c(N5CCOCC5)cccc34)CN2C(=O)[C@@H](NC(=O)OC(C)(C)C(C)(F)F)[C@H](C)C1` [Compound 5126, 3,3-difluoro-2-methylbutan-2-yl ((2R,6S,7R,9R,13aS,14aR,16aS,Z)-7,9-dimethyl-14a-(((1-methylcyclopropyl)sulfonyl)carbamoyl)-2-((5-morpholinoisoquinolin-1-yl)oxy)-5,16-dioxo-1,2,3,5,6,7,8,9,10,11,13a,14,14a,15,16,16a-hexadecahydrocyclopropa[e]pyrrolo[1,2-a][1,4]diazacyclopentadecin-6-yl)carbamate], the EC50 in assay [1] and in assay [2] was below 5.46 nM each time.
As for `CCOc1ccc2c(O[C@@H]3C[C@H]4C(=O)N[C@]5(C(=O)NS(=O)(=O)C6CC6)C[C@H]5/C=C\CC[C@H](C)C[C@@H](C)[C@H](NC(=O)OC(C)(C)C(F)(F)F)C(=O)N4C3)nccc2c1` [Compound 5129, 1,1,1-trifluoro-2-methylpropan-2-yl ((2R,6S,7R,9S,13aS,14aR,16aS,Z)-14a-((cyclopropylsulfonyl)carbamoyl)-2-((6-ethoxyisoquinolin-1-yl)oxy)-7,9-dimethyl-5,16-dioxo-1,2,3,5,6,7,8,9,10,11,13a,14,14a,15,16,16a-hexadecahydrocyclopropa[e]pyrrolo[1,2-a][1,4]diazacyclopentadecin-6-yl)carbamate], the figures for the concentration for a half-maximal effect (EC50) in assay [1] and in assay [2] were below 5.46 nM and 4.82 to 103 nM, respectively.
For `CCOc1ccc2c(O[C@@H]3C[C@H]4C(=O)N[C@]5(C(=O)NS(=O)(=O)C6CC6)C[C@H]5/C=C\CC[C@@H](C)C[C@@H](C)[C@H](NC(=O)OC(C)(C)C(F)(F)F)C(=O)N4C3)nccc2c1` [Compound 5130, 1,1,1-trifluoro-2-methylpropan-2-yl ((2R,6S,7R,9R,13aS,14aR,16aS,Z)-14a-((cyclopropylsulfonyl)carbamoyl)-2-((6-ethoxyisoquinolin-1-yl)oxy)-7,9-dimethyl-5,16-dioxo-1,2,3,5,6,7,8,9,10,11,13a,14,14a,15,16,16a-hexadecahydrocyclopropa[e]pyrrolo[1,2-a][1,4]diazacyclopentadecin-6-yl)carbamate] the same measures were below 5.46 nM and below 5.46 nM.
For `CCOc1ccc2c(O[C@@H]3C[C@H]4C(=O)N[C@]5(C(=O)NS(=O)(=O)C6CC6)C[C@H]5/C=C\CC[C@H](C)C[C@@H](C)[C@H](NC(=O)O[C@@H]5C[C@@H]6C[C@@H]6C5)C(=O)N4C3)nccc2c1` [Compound 5131, (1R,3r,5S)-bicyclo[3.1.0]hexan-3-yl ((2R,6S,7R,9S,13aS,14aR,16aS,Z)-14a-((cyclopropylsulfonyl)carbamoyl)-2-((6-ethoxyisoquinolin-1-yl)oxy)-7,9-dimethyl-5,16-dioxo-1,2,3,5,6,7,8,9,10,11,13a,14,14a,15,16,16a-hexadecahydrocyclopropa[e]pyrrolo[1,2-a][1,4]diazacyclopentadecin-6-yl)carbamate], the EC50 in assay [1] and in assay [2] was below 5.46 nM throughout.
For `CCOc1ccc2c(O[C@@H]3C[C@H]4C(=O)N[C@]5(C(=O)NS(=O)(=O)C6CC6)C[C@H]5/C=C\CC[C@@H](C)C[C@@H](C)[C@H](NC(=O)O[C@@H]5C[C@@H]6C[C@@H]6C5)C(=O)N4C3)nccc2c1` [Compound 5132, (1R,3r,5S)-bicyclo[3.1.0]hexan-3-yl ((2R,6S,7R,9R,13aS,14aR,16aS,Z)-14a-((cyclopropylsulfonyl)carbamoyl)-2-((6-ethoxyisoquinolin-1-yl)oxy)-7,9-dimethyl-5,16-dioxo-1,2,3,5,6,7,8,9,10,11,13a,14,14a,15,16,16a-hexadecahydrocyclopropa[e]pyrrolo[1,2-a][1,4]diazacyclopentadecin-6-yl)carbamate], the EC50 in assay [1] and in assay [2] was below 5.46 nM throughout.
Take `CCOc1ccc2c(O[C@@H]3C[C@H]4C(=O)N[C@]5(C(=O)NS(=O)(=O)C6(C)CC6)C[C@H]5/C=C\CC[C@H](C)C[C@@H](C)[C@H](NC(=O)OC(C)(C)C(F)(F)F)C(=O)N4C3)nccc2c1` [Compound 5135, 1,1,1-trifluoro-2-methylpropan-2-yl ((2R,6S,7R,9S,13aS,14aR,16aS,Z)-2-((6-ethoxyisoquinolin-1-yl)oxy)-7,9-dimethyl-14a-(((1-methylcyclopropyl)sulfonyl)carbamoyl)-5,16-dioxo-1,2,3,5,6,7,8,9,10,11,13a,14,14a,15,16,16a-hexadecahydrocyclopropa[e]pyrrolo[1,2-a][1,4]diazacyclopentadecin-6-yl)carbamate]: the EC50 was below 5.46 nM in assay [1] and 4.82 to 103 nM in assay [2].
In the same order, the values of `CCOc1ccc2c(O[C@@H]3C[C@H]4C(=O)N[C@]5(C(=O)NS(=O)(=O)C6(C)CC6)C[C@H]5/C=C\CC[C@@H](C)C[C@@H](C)[C@H](NC(=O)OC(C)(C)C(F)(F)F)C(=O)N4C3)nccc2c1` [Compound 5136, 1,1,1-trifluoro-2-methylpropan-2-yl ((2R,6S,7R,9R,13aS,14aR,16aS,Z)-2-((6-ethoxyisoquinolin-1-yl)oxy)-7,9-dimethyl-14a-(((1-methylcyclopropyl)sulfonyl)carbamoyl)-5,16-dioxo-1,2,3,5,6,7,8,9,10,11,13a,14,14a,15,16,16a-hexadecahydrocyclopropa[e]pyrrolo[1,2-a][1,4]diazacyclopentadecin-6-yl)carbamate] are below 5.46 nM and below 5.46 nM.
In the same order, the values of `CCOc1ccc2c(O[C@@H]3C[C@H]4C(=O)N[C@]5(C(=O)NS(=O)(=O)C6(C)CC6)C[C@H]5/C=C\CC[C@H](C)C[C@@H](C)[C@H](NC(=O)O[C@@H]5C[C@@H]6C[C@@H]6C5)C(=O)N4C3)nccc2c1` [Compound 5137, (1R,3r,5S)-bicyclo[3.1.0]hexan-3-yl ((2R,6S,7R,9S,13aS,14aR,16aS,Z)-2-((6-ethoxyisoquinolin-1-yl)oxy)-7,9-dimethyl-14a-(((1-methylcyclopropyl)sulfonyl)carbamoyl)-5,16-dioxo-1,2,3,5,6,7,8,9,10,11,13a,14,14a,15,16,16a-hexadecahydrocyclopropa[e]pyrrolo[1,2-a][1,4]diazacyclopentadecin-6-yl)carbamate] are below 5.46 nM and below 5.46 nM.
